Data published in publication PMC11642016 (International Journal of Molecular Sciences, 2024).
“And” between values parts separate entries of the source, which are not always exact repeats. Equal entries are not always repeated. Where two headings read alike, the source gives them in different places.

Tests used:
PANC-1 cells [1] = assay: Colony formation (clonogenic) assay; format: cell-based, human; details: 4 µM
PANC-1 and Fadu cells = assay: CellTiter-Glo viability, statements covering both cancer cell lines; format: cell-based, human; details: 72 h dose–response
Procedure: The effects of the synthesized compounds on cell viability were measured using the CellTiter-Glo® luminescent cell viability assay (Promega, Madison, WI, USA), according to the manufacturer’s instructions. […] After seeding, cells were incubated for a further 48 h before treatment. Cells were treated with the compounds for 72 h. […] After treatment, the luminescence signal was recorded using a microplate reader (BioTek Synergy 2 Multi-Mode Reader, BioTek, Winooski, VT, USA).

HEK293T WT cells = assay: CellTiter-Glo cell viability assay, HEK293T WT; details: for HEK293T WT Cell viability (% of controll): 72 h, dose–response, individual replicates
Fadu cells = assay: CellTiter-Glo luminescent cell viability assay, Fadu; details: for Fadu Cell viability (% of controll): dose–response, individual replicates
PANC-1 cells [2] = assay: CellTiter-Glo luminescent cell viability assay, PANC-1; details: for PANC-1 Cell viability (% of controll): dose–response, individual replicates
[3] = test system: non-tumorous primary fibroblast cells; assay: CellTiter-Glo luminescent cell viability assay, primary fibroblasts; details: for Primer fibroblast Cell viability (% of controll): 72 h, dose–response, individual replicates
HEK293T CLPP^−/− cells = assay: CellTiter-Glo cell viability assay, HEK293T CLPP−/− (ClpP dependence); details: for HEK293T CLPP-/- Cell viability (% of controll): individual replicates;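 as to all read-outs here: CellTiter-Glo luminescent signal read on a microplate reader once HEK293T CLPP−/− cells had been exposed to compounds for 72 h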
Procedure: Primary fibroblast cultures were prepared from human skin biopsies and maintained in DMEM supplemented with 10% FBS, 1% penicillin-streptomycin, and 1% MEM Non-Essential Amino Acids Solution (Thermo Fisher Scientific). […] All cell lines were cultured in a humidified atmosphere at 37 °C and 5% CO2, passaged twice a week, and the experiments were performed on cells between passage 5 and 15. The cell lines were routinely screened for the absence of mycoplasma infection (DAPI staining).
The effects of the synthesized compounds on cell viability were measured using the CellTiter-Glo® luminescent cell viability assay (Promega, Madison, WI, USA), according to the manufacturer’s instructions. Briefly, cells were seeded onto a flat-bottomed, white 96-well plate (BRANDplates, cat. no.: 781965)), with the following densities: PANC-1: 750 cells/well, Fadu: 2000 cells/well, primary fibroblasts: 2000 cells/well, HEK293T WT: 1000 cells/well, HEK293T CLPP^−/−: 2500 cells/well. After seeding, cells were incubated for a further 48 h before treatment. Cells were treated with the compounds for 72 h. Three concentrations (25.0 µM; 8.3 µM; 2.8 µM) were applied during the initial cell viability screening, while for the determination of dose–response curves, 1.5-fold serially diluted compound concentrations were applied (range: 26 µM–0.7 µM). After treatment, the luminescence signal was recorded using a microplate reader (BioTek Synergy 2 Multi-Mode Reader, BioTek, Winooski, VT, USA).
Data analysis was performed using GraphPad Prism 9.5.0 software (GraphPad Software, San Diego, CA, USA). […] The dose–response curves were generated by four-parameter nonlinear regression, and the IC50 values were determined as the means ± SEM of the best-fit values of 3 independent measurements. The R^2 values were consistently above 0.93, indicating a strong fit of the model to the experimental data (Supplementary S.89). […] Dunnett’s post hoc test was applied to adjust for multiple comparisons, minimizing the likelihood of false positive results. Assumptions for ANOVA, including normality (assessed via QQ plots) and homogeneity of variance (tested using the Brown–Forsythe test), were verified. The following significance levels were applied: * p < 0.05, ** p < 0.01, *** p < 0.001, **** p < 0.0001. […] The tumor selectivity of the compounds was quantitatively characterized by the selectivity index (SI). This parameter was calculated as the ratio of the average best-fit IC50 value for primary fibroblasts and the best-fit IC50 value for the corresponding tumor cells (PANC-1 or Fadu).

IC50 (PANC-1 cells [2]; read-out: IC50 Value ± SEM PANC-1, 72 h treatment, best-fit values, n = 3): 2700 ± 70 nM | IC50 (PANC-1 cells [2]; read-out: PANC-1 IC50 values, Mean, mean of independently fitted replicate IC50 values (Supplement S.6)): 2710 nM | IC50 (PANC-1 cells [2]; read-out: PANC-1 IC50 values, individual replicates n1-n3, IC50 independently determined for each replicate measurement (Supplement S.6)): 2790 nM and 2620 nM and 2720 nM
Compound: CNCC#Cc1cccc(CN2C(=O)C3=C(CCN(Cc4ccc(-n5cc(-[c-]6cccc6)nn5)cc4)C3)N3CCN=C23)c1.[Fe+2].c1cc[cH-]c1 [38a]
viable cells / colonies after shorter exposure (PANC-1 cells [1]; 24 h treatment followed by 5 days post-incubation): left only traces of viable cells | viable cells / colonies after longer exposure (PANC-1 cells [1]; 72 h treatment followed by 3 days post-incubation): no viable cells were discernible | concentration range of almost complete eradication of PANC-1 and Fadu cells with little to no cytotoxic effect toward fibroblasts (PANC-1 and Fadu cells): 3000 to 4000 nM | HEK293T WT Cell viability (% of controll) (HEK293T WT cells; 0.4 μM): 106 % of controll and 101 % of controll and 99 % of controll and 100 % of controll | HEK293T WT Cell viability (% of controll) (HEK293T WT cells; 0.6 μM): 106 % of controll (2×) and 109 % of controll and 81 % of controll | HEK293T WT Cell viability (% of controll) (HEK293T WT cells; 1.0 μM): 82 % of controll and 90 % of controll and 94 % of controll and 81 % of controll | HEK293T WT Cell viability (% of controll) (HEK293T WT cells; 1.6 μM): 65 % of controll and 60 % of controll and 52 % of controll (2×) | HEK293T WT Cell viability (% of controll) (HEK293T WT cells; 2.5 μM): 11 % of controll and 6 % of controll and 5 % of controll (2×) | HEK293T WT Cell viability (% of controll) (HEK293T WT cells; 4.0 μM): 0 % of controll | HEK293T WT Cell viability (% of controll) (HEK293T WT cells; 6.4 μM): 0 % of controll | HEK293T WT Cell viability (% of controll) (HEK293T WT cells; 16.25 μM): 0 % of controll | HEK293T WT Cell viability (% of controll) (HEK293T WT cells; 26 μM): 0 % of controll | IC50 (HEK293T WT cells; read-out: HEK293T WT IC50 values, individual replicates n1-n4, IC50 independently determined for each replicate measurement (Supplement S.6)): 1.6 µM and 1.5 µM and 1.65 µM and 1.62 µM | IC50 (HEK293T WT cells; read-out: IC50 (µM) HEK293T WT, 72 h treatment, ± SEM, best-fit values, n = 4): 1.6 ± 0.04 µM | Fadu Cell viability (% of controll) (Fadu cells; 0.7 μM, 72 h): 109 % of controll and 115 % of controll and 106 % of controll | Fadu Cell viability (% of controll) (Fadu cells; 1 μM, 72 h): 110 % of controll and 106 % of controll and 105 % of controll | Fadu Cell viability (% of controll) (Fadu cells; 1.5 μM, 72 h): 102 % of controll and 103 % of controll and 100 % of controll | Fadu Cell viability (% of controll) (Fadu cells; 2.3 μM, 72 h): 96 % of controll and 91 % of controll and 87 % of controll | Fadu Cell viability (% of controll) (Fadu cells; 3.4 μM, 72 h): 43 % of controll and 13 % of controll (2×) | Fadu Cell viability (% of controll) (Fadu cells; 5.1 μM, 72 h): 0 % of controll | Fadu Cell viability (% of controll) (Fadu cells; 7.7 μM, 72 h): 0 % of controll | Fadu Cell viability (% of controll) (Fadu cells; 17.3 μM, 72 h): 0 % of controll | Fadu Cell viability (% of controll) (Fadu cells; 26 μM, 72 h): 0 % of controll | Cell Viability (% of Control) 2.8 µM (Fadu cells; Fadu, 2.8 µM, 72 h, second-set screening, mean ± SD, n = 2): 85 ± 16 % of Control | Cell Viability (% of Control) 8.3 µM (Fadu cells; Fadu, 8.3 µM, 72 h, second-set screening, mean ± SD, n = 2): 0 ± 1 % of Control | Cell Viability (% of Control) 25 µM (Fadu cells; Fadu, 25 µM, 72 h, second-set screening, mean ± SD, n = 2): 0 ± 0 % of Control | Selectivity Index (SI) Fibroblast/Fadu (Fadu cells; ratio of mean best-fit IC50 for primary fibroblasts and best-fit IC50 for Fadu): 1.6 | IC50 (Fadu cells; read-out: Fadu IC50 values, individual replicates n1-n3, IC50 independently determined for each replicate measurement (Supplement S.6)): 3.2 µM and 2.75 µM (2×) | IC50 (Fadu cells; read-out: IC50 Value ± SEM Fadu, 72 h treatment, best-fit values, n = 3): 2900 ± 60 nM | PANC-1 Cell viability (% of controll) (PANC-1 cells [2]; 0.7 μM, 72 h): 112 % of controll and 107 % of controll and 109 % of controll | PANC-1 Cell viability (% of controll) (PANC-1 cells [2]; 1 μM, 72 h): 107 % of controll and 114 % of controll and 110 % of controll | PANC-1 Cell viability (% of controll) (PANC-1 cells [2]; 1.5 μM, 72 h): 116 % of controll and 119 % of controll and 108 % of controll | PANC-1 Cell viability (% of controll) (PANC-1 cells [2]; 2.3 μM, 72 h): 97 % of controll and 105 % of controll and 115 % of controll | PANC-1 Cell viability (% of controll) (PANC-1 cells [2]; 3.4 μM, 72 h): 2 % of controll (2×) and 4 % of controll | PANC-1 Cell viability (% of controll) (PANC-1 cells [2]; 5.1 μM, 72 h): 0 % of controll | PANC-1 Cell viability (% of controll) (PANC-1 cells [2]; 7.7 μM, 72 h): 0 % of controll | PANC-1 Cell viability (% of controll) (PANC-1 cells [2]; 17.3 μM, 72 h): 0 % of controll | PANC-1 Cell viability (% of controll) (PANC-1 cells [2]; 26 μM, 72 h): 0 % of controll | Cell Viability (% of Control) 2.8 µM (PANC-1 cells [2]; PANC-1, 2.8 µM, 72 h, second-set screening, mean ± SD, n = 2): 44 ± 41 % of Control | Cell Viability (% of Control) 8.3 µM (PANC-1 cells [2]; PANC-1, 8.3 µM, 72 h, second-set screening, mean ± SD, n = 2): 0 ± 0 % of Control | Cell Viability (% of Control) 25 µM (PANC-1 cells [2]; PANC-1, 25 µM, 72 h, second-set screening, mean ± SD, n = 2): 0 ± 0 % of Control | Selectivity Index (SI) Fibroblast/PANC-1 (PANC-1 cells [2]; ratio of mean best-fit IC50 for primary fibroblasts and best-fit IC50 for PANC-1): 1.7 | Primer fibroblast Cell viability (% of controll) ([3]; 0.7 μM): 97 % of controll and 105 % of controll and 109 % of controll | Primer fibroblast Cell viability (% of controll) ([3]; 1 μM): 111 % of controll and 113 % of controll and 100 % of controll | Primer fibroblast Cell viability (% of controll) ([3]; 1.5 μM): 105 % of controll and 113 % of controll and 100 % of controll | Primer fibroblast Cell viability (% of controll) ([3]; 2.3 μM): 105 % of controll and 107 % of controll and 101 % of controll | Primer fibroblast Cell viability (% of controll) ([3]; 3.4 μM): 108 % of controll (2×) and 100 % of controll | Primer fibroblast Cell viability (% of controll) ([3]; 5.1 μM): 9 % of controll (2×) and 6 % of controll | Primer fibroblast Cell viability (% of controll) ([3]; 7.7 μM): 0 % of controll | Primer fibroblast Cell viability (% of controll) ([3]; 17.3 μM): 0 % of controll | Primer fibroblast Cell viability (% of controll) ([3]; 26 μM): 0 % of controll | IC50 ([3]; read-out: IC50 Value ± SEM Primary Fibroblast, 72 h treatment, best-fit values, n = 3): 4600 ± 830 nM | IC50 ([3]; read-out: Primary fibroblast IC50 values, Mean, mean of independently fitted replicate IC50 values (Supplement S.6), ONC201 value mathematically estimated from inflection point): 4630 nM | IC50 ([3]; read-out: Primary fibroblast IC50 values, individual replicates n1-n3, IC50 independently determined for each replicate (Supplement S.6), ONC201 value mathematically estimated from inflection point, viability stayed above 50%): 4800 nM and 4280 nM | HEK293T CLPP-/- Cell viability (% of controll) (HEK293T CLPP^−/− cells; 0.4 μM, 72 h, dose–response, listed as CZT456, 0.4 µM): 109 % of controll and 108 % of controll and 110 % of controll and 114 % of controll | HEK293T CLPP-/- Cell viability (% of controll) (HEK293T CLPP^−/− cells; 0.6 μM, 72 h, dose–response, listed as CZT456, 0.6 µM): 111 % of controll and 109 % of controll and 110 % of controll | HEK293T CLPP-/- Cell viability (% of controll) (HEK293T CLPP^−/− cells; 1.0 μM, 72 h, dose–response, listed as CZT456, 1 µM): 105 % of controll and 107 % of controll and 106 % of controll | HEK293T CLPP-/- Cell viability (% of controll) (HEK293T CLPP^−/− cells; 1.6 μM, 72 h, dose–response, listed as CZT456, 1.6 µM): 92 % of controll and 96 % of controll and 103 % of controll and 93 % of controll | HEK293T CLPP-/- Cell viability (% of controll) (HEK293T CLPP^−/− cells; 2.5 μM, 72 h, dose–response, listed as CZT456, 2.5 µM): 41 % of controll and 59 % of controll and 55 % of controll and 48 % of controll | HEK293T CLPP-/- Cell viability (% of controll) (HEK293T CLPP^−/− cells; 4.0 μM, 72 h, dose–response, listed as CZT456, 4 µM): 1 % of controll and 8 % of controll and 9 % of controll | HEK293T CLPP-/- Cell viability (% of controll) (HEK293T CLPP^−/− cells; 6.4 μM, 72 h, dose–response): 0 % of controll | HEK293T CLPP-/- Cell viability (% of controll) (HEK293T CLPP^−/− cells; 16.25 μM, 72 h, dose–response): 0 % of controll | HEK293T CLPP-/- Cell viability (% of controll) (HEK293T CLPP^−/− cells; 26 μM, 72 h, dose–response): 0 % of controll | effect on the viability of HEK293T CLPP^−/− cells (HEK293T CLPP^−/− cells; dose–response, 72 h, compared with HEK293T WT): maintained | IC50 (HEK293T CLPP^−/− cells; read-out: IC50 (µM) HEK293T CLPP^−/−, 72 h treatment, ± SEM, best-fit values, n = 4): 2.4 ± 0.03 µM
